Laboratory results taken from paper PMC6273820, “Antimicrobial Activity and Stability of Short and Long Based Arachnid Synthetic Peptides in the Presence of Commercial Antibiotics” (Molecules, 2016).
Converted amounts (≈) assume the structure as drawn. Like-named read-outs stand apart in the source and are kept apart here. Where no end group is shown, it is not given here.

Legend:
[1] = tested on: Escherichia coli ATCC 25922; test: microbe, parasite or virus in culture; type: cell-based; conditions: for MIC: Escherichia coli, read-out: Minimal Inhibitory Concentration, E. coli
Description: It was determined using the broth microdilution assay in accordance with the procedures from the Clinical and Laboratory Standards Institute. For broth microdilution assays, pathogenic bacteria, such as Escherichia coli ATCC 25922, Staphylococcus aureus ATCC 25923, Pseudomonas aeruginosa ATCC 27853 and Klebsiella pneumoniae ST258, were cultured in Mueller-Hinton broth (MHB) at 37 °C until an end point between of 0.08 and 0.13 units of absorbance at 625 nm and diluted 1:100 in MHB (ca. […]). Fifty microliters of this bacterial suspension was dispensed into each well of a 96-well microtiter Costar® culture plates (Sigma Aldrich) having 50 µL of MHB containing a proper concentration of pure AMPs, antibiotics or the mixture of either of the AMPs with either of the antibiotics used. Dilutions of peptides and antibiotics were made manually with two-fold dilutions. […]

[2] = tested on: Pseudomonas aeruginosa ATCC 27853; test: microbe, parasite or virus in culture; type: cell-based; conditions: for MIC: Pseudomonas aeruginosa, read-out: Minimal Inhibitory Concentration, P. aureginosa
Description: (§1) It was determined using the broth microdilution assay in accordance with the procedures from the Clinical and Laboratory Standards Institute. For broth microdilution assays, pathogenic bacteria, such as Escherichia coli ATCC 25922, Staphylococcus aureus ATCC 25923, Pseudomonas aeruginosa ATCC 27853 and Klebsiella pneumoniae ST258, were cultured in Mueller-Hinton broth (MHB) at 37 °C until an end point between of 0.08 and 0.13 units of absorbance at 625 nm and diluted 1:100 in MHB (ca. […]). Fifty microliters of this bacterial suspension was dispensed into each well of a 96-well microtiter Costar® culture plates (Sigma Aldrich) having 50 µL of MHB containing a proper concentration of pure AMPs, antibiotics or the mixture of either of the AMPs with either of the antibiotics used. Dilutions of peptides and antibiotics were made manually with two-fold dilutions.
(§2) E. coli, S. aureus, P. aeruginosa and K. pneumoniae were grown in the presence of each of the four AMPs, and in the presence of each of the eight commercial antibiotics, which were Levofloxacin, Trimethoprim, Sulfamethoxazole, Azithromycin, Amoxicillin, Ceftriaxone, Gentamicin and Vancomycin, and in combinations of AMPs and the antibiotics. That is, the antimicrobial capacity of each AMP (50, 25, 12.5 and 6.2 µg/ mL) in combination with each antibiotic agent (50, 25, 12.5, 3.2, 1.6 and 0 µg/ mL) was measured as described above. For evaluation of the effect of the mixtures, the fractional inhibitory concentration (FIC) was calculated for each antibiotic in each combination. The following formulas were used to calculate the FIC index: FIC of AMP = MIC of AMP in combination with Antibiotic/MIC of AMP alone; FIC of Antibiotic = MIC of Antibiotic in combination with AMP/MIC of Antibiotic alone, and FIC index = FIC of AMP + FIC of Antibiotic. Synergy was defined as an FIC index of <0.5. Additive was defined as an FIC index of >0.5 but of <4, and finally antagonism was defined as an FIC index of >4.

[3] = tested on: Staphylococcus aureus ATCC 25923; test: microbe, parasite or virus in culture; type: cell-based; conditions: for MIC: Staphylococcus aureus, read-out: Minimal Inhibitory Concentration, S. aureus
Description: as §1, §2

[4] = tested on: Klebsiella pneumoniae ST258; test: microbe, parasite or virus in culture; type: cell-based; conditions: for MIC: Klebsiella pneumoniae, ST258, 18 h; for Minimal Inhibitory Concentration, K. pneumoniae: broth microdilution (CLSI), Mueller-Hinton broth, 18 h at 37 °C, A625nm, peptides n = 8
Description: as §1
as §2, with “That” for “E. coli, S. aureus, P. aeruginosa and K. pneumoniae were grown in the presence of each of the four AMPs, and in the presence of each of the eight commercial antibiotics, which were Levofloxacin, Trimethoprim, Sulfamethoxazole, Azithromycin, Amoxicillin, Ceftriaxone, Gentamicin and Vancomycin, and in combinations of AMPs and the antibiotics. That”

[5] = Stability in human blood plasma; type: in vitro ADME; conditions: 50 μg/mL; for Peptide found after incubation in human blood plasma: 12 h at 37 °C, extraction, reverse phase HPLC at 230 nm, ESI-MS; for Recovery after interaction with human plasma, first few minutes of dilution: extracted after the first few minutes of dilution, reverse phase HPLC
Description: (§3) The four synthetic peptides were subjected to incubation in human blood plasma or in the supernatant of S. aureus and P. aeruginosa growth. The AMPs were diluted in human blood plasma or in the supernatant of bacterial growth (50 μg/mL) and incubated at 37 °C for 12 h. After peptide extraction, the AMPs were separated by reverse phase HPLC using a C18 column (Vydac 218 TP54, Grace Co.) and a linear gradient of acetonitrile in 0.1% aqueous TFA from 0 to 60% in 60 min at a flow rate of 1 mL/min. Effluent absorbance was monitored at 230 nm. Peptide fractions were dried under vacuum, resuspended and analyzed by ESI-MS to confirm their molecular masses.

[6] = Stability in supernatant of S. aureus growth; type: in vitro ADME, Staphylococcus aureus; conditions: 50 μg/mL, 12 h at 37 °C, extraction, reverse phase HPLC at 230 nm
Description: as §3

[7] = Stability in supernatant of P. aeruginosa growth; type: in vitro ADME, Pseudomonas aeruginosa; conditions: 50 μg/mL, 12 h at 37 °C, extraction, reverse phase HPLC at 230 nm
Description: as §3

[8] = cited from earlier work
Source text: Concerning AMPs, several physicochemical characteristics have been associated with the biological activity of them. Those that are relevant include hydrophobicity, the helical hydrophobic moment, as well as the size and the net charge of the peptide. However, no particular value relating to any of these characteristics was solely sufficient to correlate with the antimicrobial activity of the AMPs tested. In this case, however, the larger peptides FA1 and Pin2[G] were the AMPs that manifested optimum biological performance. Nevertheless, a fine balance in terms of physicochemical pr ...

[9] = read-out: Minimal Inhibitory Concentration, K. pneumoniae
[10] = dose-response in Muller-Hinton broth, Figure 3D
[11] = ATCC25922, broth microdilution (CLSI), Mueller-Hinton broth, 18 h at 37 °C, A625nm, peptides n = 8
[12] = ATCC27853, broth microdilution (CLSI), Mueller-Hinton broth, 18 h at 37 °C, A625nm, peptides n = 8
[13] = ATCC25923, broth microdilution (CLSI), Mueller-Hinton broth, 18 h at 37 °C, A625nm, peptides n = 8
[14] = broth microdilution (CLSI), Mueller-Hinton broth, 18 h at 37 °C, A625nm, peptides n = 8

With `CC1(C)S[C@@H]2[C@H](NC(=O)[C@H](N)c3ccc(O)cc3)C(=O)N2[C@H]1C(=O)O` [Amoxicillin] the MIC ([1]; ATCC25922, 18 h) was 12.5 µg/mL (≈ 34.2 µM), the “Susceptibility of P. aeruginosa in words” value [2] was “resistant” and the MIC ([2]; ATCC27853, 18 h) was > 50 µg/mL. The MIC ([3]; ATCC25923, 18 h) was 1.5 µg/mL, the MIC ([4]; read-out: Antibiotic (MIC)) was > 50 µg/mL and the MIC [4, 9] was > 50 µg/mL. For the same molecule, the “Antibiotic concentration in whose presence K. pneumoniae could grow (up to)” value (shortened to “Antibiotic concentration”) [4, 10] was “up to 50 µg/mL”.
Molecule `CC[C@H]1OC(=O)[C@H](C)[C@@H](O[C@H]2C[C@@](C)(OC)[C@@H](O)[C@H](C)O2)[C@H](C)[C@@H](O[C@@H]2O[C@H](C)C[C@H](N(C)C)[C@H]2O)[C@](C)(O)C[C@@H](C)CN(C)[C@H](C)[C@@H](O)[C@]1(C)O` [Azithromycin] has an MIC [1, 11] of 1.5 µg/mL (≈ 2 µM), an MIC [2, 12] of 12.5 µg/mL and an MIC [3, 13] of 3.1 µg/mL. The MIC ([4]; read-out: Antibiotic (MIC)) was > 50 µg/mL, the MIC [4, 9] was > 50 µg/mL and the “Antibiotic concentration” value [4, 10] was “up to 50 µg/mL”.
In the case of `CO/N=C(\C(=O)N[C@@H]1C(=O)N2C(C(=O)O)=C(CSc3nc(=O)c(=O)[nH]n3C)CS[C@H]12)c1csc(N)n1` [Ceftriaxone], the MIC [1, 11] is reported as 1.5 µg/mL (≈ 2.7 µM), the MIC [2, 12] is reported as 12.5 µg/mL and the MIC [3, 13] is reported as 1.5 µg/mL. The MIC ([4]; read-out: Antibiotic (MIC)) was > 50 µg/mL, the MIC [4, 9] was > 50 µg/mL and the “Antibiotic concentration” value [4, 10] was “up to 50 µg/mL”.
`CNC(C)C1CCC(N)C(OC2C(N)CC(N)C(OC3OCC(C)(O)C(NC)C3O)C2O)O1` (stereo not shown) [Gentamicin] showed an MIC [1, 11] of 1.5 µg/mL (≈ 3.14 µM), an MIC [2, 12] of 1.5 µg/mL and an MIC [3, 13] of 1.5 µg/mL. The MIC [4, 9] was 12.5 µg/mL, the MIC ([4]; antibiotic alone against K. pneumoniae, based on Figure 3, read-out: Antibiotic (MIC)) was 12.5 µg/mL and the “Susceptibility of K. pneumoniae in words” value [4, 10] was “susceptible”.
For `C[C@H]1COc2c(N3CCN(C)CC3)c(F)cc3c(=O)c(C(=O)O)cn1c23` [Levofloxacin], the MIC [1, 11] was 1.5 µg/mL (≈ 4.15 µM), the MIC [2, 12] was 1.5 µg/mL and the MIC [3, 13] was 1.5 µg/mL. For the same molecule, the MIC ([4]; read-out: Antibiotic (MIC)) was 50 µg/mL, the MIC [4, 9] was 50 µg/mL and the “Antibiotic concentration” value [4, 10] was “up to 25 µg/mL”.
In the case of `Cc1cc(NS(=O)(=O)c2ccc(N)cc2)no1` [Sulfamethoxazole], the “Susceptibility of E. coli in words” value [1] is reported as “to some extent”, the MIC ([1]; ATCC25922, 18 h) is reported as > 50 µg/mL and the “Susceptibility of P. aeruginosa in words” value [2] is reported as “resistant”. The MIC ([2]; ATCC27853, 18 h) was > 50 µg/mL, the “Susceptibility of S. aureus in words” value [3] was “resistance” and the MIC ([3]; ATCC25923, 18 h) was > 50 µg/mL. The MIC ([4]; read-out: Antibiotic (MIC)) was > 50 µg/mL and the MIC [4, 9] was > 50 µg/mL.
With `COc1cc(Cc2cnc(N)nc2N)cc(OC)c1OC` [Trimethoprim] the MIC ([1]; ATCC25922, 18 h) was 1.5 µg/mL (≈ 5.17 µM), the “Susceptibility of P. aeruginosa in words” value [2] was “resistant” and the MIC ([2]; ATCC27853, 18 h) was > 50 µg/mL. The MIC ([3]; ATCC25923, 18 h) was 1.5 µg/mL, the MIC ([4]; read-out: Antibiotic (MIC)) was > 50 µg/mL and the MIC [4, 9] was > 50 µg/mL. The “Antibiotic concentration” value [4, 10] was “up to 50 µg/mL”.
With `CN[C@H](CC(C)C)C(=O)N[C@H]1C(=O)N[C@@H](CC(N)=O)C(=O)N[C@H]2C(=O)N[C@H]3C(=O)N[C@H](C(=O)N[C@H](C(=O)O)c4cc(O)cc(O)c4-c4cc3ccc4O)[C@H](O)c3ccc(c(Cl)c3)Oc3cc2cc(c3O[C@@H]2O[C@H](CO)[C@@H](O)[C@H](O)[C@H]2O[C@H]2C[C@](C)(N)[C@H](O)[C@H](C)O2)Oc2ccc(cc2Cl)[C@H]1O` [Vancomycin] the MIC [1, 11] was > 50 µg/mL, the “Susceptibility of E. coli in words” value ([1]; dose-response in Muller-Hinton broth, Figure 3C) was “resistance” and the MIC [2, 12] was > 50 µg/mL. For the same molecule, the “Susceptibility of P. aeruginosa in words” value ([2]; dose-response in Muller-Hinton broth, Figure 3B) was “resistant”, the MIC [3, 13] was 1.5 µg/mL and the MIC ([4]; read-out: Antibiotic (MIC)) was > 50 µg/mL. For the same molecule, the MIC [4, 9] was > 50 µg/mL and the “Antibiotic concentration” value [4, 10] was “up to 50 µg/mL”.
With FWGALAKGALKLIGSLFSSFSKKD [Pin2[G]] the “Minimal Inhibitory Concentration, E. coli” value [1, 14] was 50 µg/mL, the “Minimal Inhibitory Concentration, P. aureginosa” value [2, 14] was >50 µg/mL and the “Minimal Inhibitory Concentration, S. aureus” value [3, 14] was 25 µg/mL. For the same molecule, the “Peptide (MIC)” value ([4]; peptide alone against K. pneumoniae, based on Figure 2) was >50 µg/mL, the “Peptide found after incubation in human blood plasma” value (“Peptide found after incubation” below) [5] was “One quarter” and the “Stability in supernatants of S. aureus” value [6] was “not cleaved”. For the same molecule, the “Stability in supernatants of P. aeruginosa” value [7] was “not cleaved” and the hemolytic activity [8] was 1.4 µM.
With FWGLKGLKKFSKKL [Pin2[14]] the “Minimal Inhibitory Concentration, E. coli” value [1, 14] was >50 µg/mL, the “Minimal Inhibitory Concentration, P. aureginosa” value [2, 14] was >50 µg/mL and the “Minimal Inhibitory Concentration, S. aureus” value [3, 14] was >50 µg/mL. The “Minimal Inhibitory Concentration, K. pneumoniae” value [4] was >50 µg/mL, the “Peptide found after incubation” value [5] was “not found” and the “Recovery after interaction with human plasma, first few minutes of dilution” value [5] was “none”. For the same molecule, the “Stability in supernatants of S. aureus” value [6] was “not cleaved” and the hemolytic activity [8] was 418 µM.
With GILKTIKSIASKLKRKAK [P18K] the “Minimal Inhibitory Concentration, E. coli” value [1, 14] was >50 µg/mL, the “Minimal Inhibitory Concentration, P. aureginosa” value [2, 14] was >50 µg/mL and the “Minimal Inhibitory Concentration, S. aureus” value [3, 14] was >50 µg/mL. The “Minimal Inhibitory Concentration, K. pneumoniae” value [4] was >50 µg/mL, the “Peptide found after incubation” value [5] was “neither was P18K obtained” and the “Recovery after interaction with human plasma, first few minutes of dilution” value [5] was “none”. The “Stability in supernatants of S. aureus” value [6] was “probably sequestered or cleaved”, the “Stability in supernatants of P. aeruginosa” value [7] was “probably sequestered or cleaved” and the hemolytic activity [8] was 923 µM.
